Source: patent US7977481B2, “Pyrimidinyl-thiophene kinase modulators” (SGX Pharmaceuticals, Inc., priority 2005, dated 2011)

These compounds were tested against T1, MET kinase (Homo sapiens, UniProt P08581) (assay: MET Luminescence-Based ATP Depletion Enzyme Assay). Details: 10 μM ATP.
T1 construct: expressing the kinase domain of human Met; 6x Histidine tag (cleaved yes); made in house; host or cells: Sf9 insect cells
T1 sequence (P08581 1078-1345 limits assumed): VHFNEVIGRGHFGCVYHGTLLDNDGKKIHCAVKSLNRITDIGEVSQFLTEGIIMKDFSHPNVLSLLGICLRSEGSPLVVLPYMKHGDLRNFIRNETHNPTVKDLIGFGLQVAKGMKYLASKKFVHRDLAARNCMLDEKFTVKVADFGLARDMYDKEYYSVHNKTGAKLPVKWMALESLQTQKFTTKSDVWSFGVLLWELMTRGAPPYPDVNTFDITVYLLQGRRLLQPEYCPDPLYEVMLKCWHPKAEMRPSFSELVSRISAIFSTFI
Assay type: biochemical
Method: MET Luminescence-Based ATP Depletion Enzyme Assay
Materials: Poly Glu-Tyr (4:1) substrate (Sigma Cat#P-0275), ATP (Sigma Cat#A-3377, FW=551), HEPES buffer, pH 7.5, Bovine serum albumin (BSA) (Roche 92423420), MgCl2, Staurosporine (Streptomyces sp. Sigma Cat#85660-1MG), white Costar 384-well flat-bottom plate (VWR Cat#29444-088). MET kinase (see below), Kinase-Glo™ (Promega Cat#V6712).
Stock Solutions: 10 mg/ml poly Glu-Tyr in water, stored at −20° C.; 100 mM HEPES buffer, pH 7.5 (5 ml 1M stock+45 ml miliQH2O); 10 mM ATP (5.51 mg/ml in dH2O) stored at −20° C. (diluted 50 μl into total of 10 ml miliQH2O daily=50 μM ATP working stock); 1% BSA (1 g BSA in 100 ml 0.1M HEPES, pH 7.5, stored at −20° C.), 100 mM MgCl2; 200 μM Staurosporine, 2× Kinase-Glo™ reagent (made fresh or stored at −20° C.).
Standard Assay Setup for 384-well format (20 μl kinase reaction, 40 μl detection reaction): 10 mM MgCl2; 0.3 mg/ml poly Glu-Tyr; 0.1% BSA; 1 μl test compound (in DMSO); 0.4 μg/ml MET kinase; 10 μM ATP; 100 mM HEPES buffer. Positive controls contained DMSO with no test compound. Negative controls contained 10 μM staurosporine. The kinase reactions were initiated at time t=0 by the addition of ATP. Kinase reactions were incubated at 21° C. for 60 min, then 20 μl of Kinase-Glo™ reagent were added to each well to quench the kinase reaction and initiate the luminescence reaction. After a 20 min incubation at 21° C., the luminescence was detected in a plate-reading luminometer.
The cell pellets produced from half of a 12 L Sf9 insect cell culture expressing the kinase domain of human Met were resuspended in a buffer containing 50 mM Tris-HCl pH 7.7 and 250 mM NaCl, in a volume of approximately 40 ml per 1 L of original culture. One tablet of Roche Complete, EDTA-free protease inhibitor cocktail (Cat#1873580) was added per 1 L of original culture. The suspension was stirred for 1 hour at 4° C. Debris was removed by centrifugation for 30 minutes at 39,800×g at 4° C. The supernatant was decanted into a 500 ml beaker and 10 ml of 50% slurry of Qiagen Ni-NTA Agarose (Cat#30250) that had been pre-equilibrated in 50 mM Tris-HCl pH 7.8, 50 mM NaCl, 10% Glycerol, 10 mM Imidazole, and 10 mM Methionine, were added and stirred for 30 minutes at 4° C. The sample was then poured into a drip column at 4° C. and washed with 10 column volumes of 50 mM Tris-HCl pH 7.8, 500 mM NaCl, 10% Glycerol, 10 mM Imidazole, and 10 mM Methionine. The protein was eluted using a step gradient with two column volumes each of the same buffer containing 50 mM, 200 mM, and 500 mM Imidazole, sequentially. The 6× Histidine tag was cleaved overnight using 40 units of TEV protease (Invitrogen Cat#10127017) per 1 mg of protein while dialyzing in 50 mM Tris-HCl pH 7.8, 500 mM NaCl, 10% Glycerol, 10 mM Imidazole, and 10 mM Methionine at 4° C. The 6× Histidine tag was removed by passing the sample over a Pharmacia 5 ml IMAC column (Cat#17-0409-01) charged with Nickel and equilibrated in 50 mM Tris-HCl pH 7.8, 500 mM NaCl, 10% Glycerol, 10 mM Imidazole, and 10 mM Methionine. The cleaved protein bound to the Nickel column at a low affinity and was eluted with a step gradient. The step gradient was run with 15% and then 80% of the B-side (A-side=50 mM Tris-HCl pH 7.8, 500 mM NaCl, 10% Glycerol, 10 mM Imidazole, and 10 mM Methionine; B-side=50 mM Tris-HCl pH 7.8, 500 mM NaCl, 10% Glycerol, 500 mM Imidazole, and 10 mM Methionine) for 4 column volumes each. The Met protein eluted in the first step (15%), whereas the non-cleaved Met and the cleaved Histidine tag eluted in the 80% fractions. The 15% fractions were pooled after SDS-PAGE gel analysis confirmed the presence of cleaved Met; further purification was done by gel filtration chromatography on an Amersham Biosciences HiLoad 16/60 Superdex 200 prep grade (Cat#17-1069-01) equilibrated in 50 mM Tris-HCl pH 8.5, 150 mM NaCl, 10% Glycerol and 5 mM DTT. […]
`OC1CCN(Cc2cccc(Nc3nccc(-c4ccc(CNc5ccccc5Cl)s4)n3)c2)CC1` was tested, and the IC50 was 1000 to 5000 nM. `CC(O)c1cccc(Nc2nccc(-c3ccc(S(=O)(=O)N(C)C)s3)n2)c1` (stereo not shown) showed an IC50 of 1000 to 5000 nM. For `CCN(CCC#N)S(=O)(=O)c1ccc(-c2ccnc(Nc3cccc(C)c3)n2)s1`, the IC50 was < 1000 nM. Compound `COc1ccc(Nc2nccc(-c3ccc(Br)s3)n2)cc1C(=O)N(C)C` has an IC50 of 1000 to 5000 nM. For `CCC1CCCCN1S(=O)(=O)c1ccc(-c2ccnc(Nc3cccc(C(C)O)c3)n2)s1` (stereo not shown), the IC50 was < 1000 nM. For `C[C@@H](NC(=O)c1ccc(-c2ccnc(Nc3cccc(CN4CCC(O)CC4)c3)n2)s1)c1ccccc1`, the IC50 was < 1000 nM. For `Brc1ccc(-c2ccnc(Nc3cccc(CN4CCOCC4)c3)n2)s1`, the IC50 was 1000 to 5000 nM. For `C[C@@H](NC(=O)c1ccc(-c2ccnc(Nc3cccc(CN4CCN(CCO)CC4)c3)n2)s1)c1ccccc1`, the IC50 was < 1000 nM. `CN(C)C(=O)c1cccc(Nc2nccc(-c3ccc(Br)s3)n2)c1` was tested, and the IC50 was 1000 to 5000 nM. Work on `CC(O)c1cccc(Nc2nccc(-c3ccc(-c4cccnc4)s3)n2)c1` (stereo not shown) yielded an IC50 of 1000 to 5000 nM. For `O=C(c1cccc(Nc2nccc(-c3ccc(Br)s3)n2)c1)N1CCN(CCO)CC1`, the IC50 was 1000 to 5000 nM. `O=C(NCc1ccccc1)c1ccc(-c2ccnc(Nc3ccc(CCO)cc3)n2)s1` gave an IC50 of 1000 to 5000 nM. In the case of `CCN(CCC#N)S(=O)(=O)c1ccc(-c2ccnc(Nc3cccc(C(C)O)c3)n2)s1` (stereo not shown), the IC50 is reported as < 1000 nM. `CC(O)c1cccc(Nc2nccc(-c3ccc(S(=O)(=O)Cc4ccccc4)s3)n2)c1` (stereo not shown) was tested, and the IC50 was < 1000 nM. Work on `CCC(=O)Nc1ccc(-c2ccnc(Nc3cccc(C)c3)n2)s1` yielded an IC50 of 1000 to 5000 nM. `COc1ccc(Nc2nccc(-c3ccc(Br)s3)n2)cc1OC` was tested, and the IC50 was 1000 to 5000 nM.
